The source of these data is patent US20090215859A1, “Compositions and methods for modulating dhr96” (priority 2004, published 2009).

“Also recorded” adds a separate entry of the source.

The conditions of series [1]: solvent or supplied form; cited from earlier work.
The subject of series [2] is Cyp6a2 and Cyp6a8 transcription. The series can be described thus: Northern blot hybridization of Cyp transcription in adult flies treated with phenobarbital. The settings on record: adult flies treated with 0.3%, 1%, and 3% phenobarbital.
Protocol: Each treatment is done in triplicate. RNA is extracted from each set of animals, purified by TRIzol extraction (Gibco BRL) followed by RNeasy column chromatography (Qiagen), and ethanol precipitation. The RNA is then labeled and hybridized to Affymetrix GeneChip® Drosophila Genome 2.0 arrays designed to detect 18,500 Drosophila transcripts. Data is then analyzed using DChip 1.3 (http://biosun1.harvard.edu/complab/dchip/) and Significance Analysis of Microarrays (SAM).
Another series deals with DHR38. The settings on record: cultured larval organs; cited from earlier work.
Another series relates to C. elegans nhr-8 mutant. The settings on record: mutation in the nuclear receptor nhr-8 gene; cited from earlier work.
The next series deals with Cyp6g1. The series can be described thus: Cyp6g1 induction by DDT in Canton S flies. The settings on record: one experiment. Format: in vivo, Drosophila melanogaster. The text has this:
Validation can be conducted on selected genes, covering the different classes of detoxification pathways as well as new players that identified. Similar microarray studies using at least two other compounds, depending on which compounds show an effect in the viability and behavioral assays. It will be confirmed that wild type Canton S flies show a response to DDT using Cyp12d1 and other P450 genes as probes for northern blot hybridization. […] Other pesticides can also be surveyed for effects on a select group of Cyp gene targets to identify other compounds for use in comparative microarray profiling. […] Determining the transcriptional response to more than one xenobiotic compound can provide an initial impression of how insects respond to different toxins in their environment. […] Alternatively, the genetic response may be fine-tuned to combat specific xenobiotic compounds.

The subject of series [3] is wild type (Canton S) and DHR96 mutant adult flies. The series can be described thus: Toxicity assay: adult flies exposed to DDT in 5% sucrose on filter paper, survival scored. It counts as in vivo, Drosophila melanogaster. Here is the method: A time course is shown. 20 wild type or DHR96^E25 mutant flies were treated with a high concentration of DDT (100 ng/μl) and assayed for survival every hour up to 10 hours. Each assay (A+B) was done in triplicate to determine the standard deviation as shown by the error bars.
(§1) A dose response curve is shown. Twenty wild type or DHR96^E25 mutant flies were exposed to eight DDT concentrations, from 0.78 to 100 ng/μl, and then scored for survival 10 hours later. A similar test was conducted for sensitivity to tebufenizide (FIG. 11C) using larvae raised on food supplemented with the drug.
Adult flies were raised on standard cornmeal/agar food and starved overnight under humid conditions at 25 0 C before treatment with DDT. A DDT stock solution was prepared by dissolving crystalline DDT (Sigma) in 100% ethanol. Appropriate DDT dilutions were made by diluting the DDT stock with 5% sucrose and pipetting 275 μl of the solution onto a strip of Whatman filter paper inside a small glass scintillation vial. Twenty adult flies were placed in each vial which was plugged with cotton. Mortality was scored 10 hours later at room temperature. For each DDT concentration, three replicates, each of twenty adult flies, were used. For the time course assay, 100 ng/μl of DDT was used and mortality scored every hour for 10 hours.
As a test of DHR96 acting in a xenobiotic pathway, DHR96 mutants were tested for sensitivity to the pesticide DDT. Adult wild type flies (Canton S) and DHR96^16A were exposed or DHR96^E25 flies to varying concentrations of DDT and recorded survival rates after a fixed time.
(§2) The adult Canton S flies and the DHR96E25 outcrossed lines were exposed to varying concentrations of drug and recorded effects after a fixed time (FIG. 11). DDT was assayed by starving young healthy adult flies overnight and then transferring them to vials, in three groups of 20 flies each, with filter paper soaked with 5% sucrose alone or 5% sucrose and DDT at different concentrations. The number of living flies was scored after 23 hours. […] Tebufenozide was administered to larvae in the food, and the number of surviving adult flies was scored.

Series [4] has as its system Canton S and outcrossed DHR96E25 mutant larvae. The series can be described thus: Tebufenozide administered to larvae in the food, surviving adult flies scored. It counts as in vivo, Drosophila melanogaster. The settings on record: larvae raised on food supplemented with the drug. The protocol:
as §1, §2
The above assays are for testing the effect of xenobiotics on adult flies. Compounds can also be tested for their larvicidal effects by administering them in the food to staged populations of larvae (Grant et al. Bull. Envir. Contam. Tox. 69:35-40, 2002). DHR96 and Canton S control flies are maintained on normal cornmeal/molasses agar supplemented with yeast. Egg lays are collected overnight from these stocks and used to innoculate fresh vials of food supplemented with a specific concentration of the drug to be tested. […]

Series [5] addresses T1, GAL4-DHR96 fusion protein (Drosophila melanogaster, UniProt Q24143).
T1 construct: expressed in transfected cells; host or cells: transgenic Drosophila third instar larvae (hs-GAL4-DHR96; UAS-lacZ), dissected organs in culture
The series can be described thus: GAL4-LBD activation assay in cultured third instar larval organs (UAS-lacZ, Xgal staining). The settings on record: organs of heat-induced hs-GAL4-DHR96; UAS-lacZ third instar larvae cultured with 1×10^−5 M tebufenozide. Format: cell-based. The text has this: A gene fusion of the GAL4 DNA binding domain (DBD) and DHR96 ligand binding domain (LBD) is expressed upon heat-induction of the hsp70 promoter. The resultant fusion protein can bind to GAL4 response elements (UAS) on a seperate transgenic construct, but will only activate lacZ transcription in the presence of an appropriate ligand and/or co-factors (a ligand is shown). β-galactosidase expression is detected as the substrate from an Xgal staining reaction.
Third instar larvae were heat-treated to induce GAL4-DHR96 expression, dissected, and organs were cultured in the presence of 1×10^−5 M tebufenozide. UAS-lacZ reporter gene expression was detected by Xgal staining. […]
DHR96 activation can be assayed for by using a method established to follow the activation status of a nuclear receptor ligand binding domain (LBD) in a developing animal. […] Expression of β-galactosidase can be detected by histochemical staining using X-gal as a substrate, generating a blue dye (FIGS. 13, 14). […]
An advantage of the GAL4-LBD system is that it can be used in tissues dissected from transgenic larvae to test specific compounds for their ability to activate the fusion protein. […] A similar assay can be used to test the ability of xenobiotic compounds to activate the GAL4-DHR96 fusion protein in cultured larval organs, using either UAS-lacZ or UAS-GFP as a readout. […]

The mark [6] stands for this setting: living flies scored after 23 hours.

T1 sequence (Q24143 99-723): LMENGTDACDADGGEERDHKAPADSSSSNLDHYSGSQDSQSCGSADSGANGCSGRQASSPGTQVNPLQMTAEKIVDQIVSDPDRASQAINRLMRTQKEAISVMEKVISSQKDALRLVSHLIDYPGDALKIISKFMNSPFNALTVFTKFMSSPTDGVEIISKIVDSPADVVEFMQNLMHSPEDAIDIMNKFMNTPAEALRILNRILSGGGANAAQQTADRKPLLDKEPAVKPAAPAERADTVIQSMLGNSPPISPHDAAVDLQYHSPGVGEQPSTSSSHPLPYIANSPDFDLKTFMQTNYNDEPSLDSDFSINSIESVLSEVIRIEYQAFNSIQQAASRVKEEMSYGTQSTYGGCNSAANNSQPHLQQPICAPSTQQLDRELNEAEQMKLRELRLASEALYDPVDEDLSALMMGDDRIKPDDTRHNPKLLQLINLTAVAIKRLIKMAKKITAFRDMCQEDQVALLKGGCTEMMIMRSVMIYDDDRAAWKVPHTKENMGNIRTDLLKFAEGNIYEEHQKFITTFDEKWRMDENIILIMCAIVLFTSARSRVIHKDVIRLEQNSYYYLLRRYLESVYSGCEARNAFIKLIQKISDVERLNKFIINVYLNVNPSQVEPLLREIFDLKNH

Regarding `CO[C@H]1/C=C/O[C@@]2(C)Oc3c(C)c(O)c4c(O)c(c(/C=N/N5CCN(C)CC5)c(O)c4c3C2=O)NC(=O)/C(C)=C\C=C\[C@H](C)[C@H](O)[C@@H](C)[C@@H](O)[C@@H](C)[C@H](OC(C)=O)[C@@H]1C` [Rifampicin], the Solubility entry in series [1] was “DMSO”.

Consider `C[n+]1ccc(-c2cc[n+](C)cc2)cc1` [Paraquat], for which the Solubility result in series [1] is recorded as “water”.

For `CC(=O)[C@H]1[C@H](C#N)C[C@H]2[C@@H]3CC=C4C[C@@H](O)CC[C@]4(C)[C@H]3CC[C@@]21C` [PCN], the Solubility entry in series [1] is listed as “DMSO”.

As for `CCC1(c2ccccc2)C(=O)NC(=O)NC1=O` [phenobarbital], in series [2], the “Cyp6a2 and Cyp6a8 transcription in the DHR96 mutant” value is “no change in expression”; the “Cyp6a2 and Cyp6a8 transcription in wild type animals” value is “dramatic induction”.

`C[C@H]([C@H](O)CCC(C)(C)O)[C@H]1CC[C@@]2(O)C3=CC(=O)[C@@H]4C[C@@H](O)[C@@H](O)C[C@]4(C)[C@H]3CC[C@]12C` [α-ecdysone]: the “Activation of DHR38 in the GAL4-LBD system” value in the series on DHR38 is reported as “can be activated”.

In the case of `COc1cc2c(c(OC)c1OC)-c1ccc(OC)c(=O)cc1[C@@H](NC(C)=O)CC2` [Colchicine], the “Resistance of nhr-8 mutant to the compound” value in the series with C. elegans nhr-8 mutant is reported as “reduced resistance”. Moreover, in series [1], the Solubility result is “ethanol”.

Regarding `CCN(CC)CCCC(C)Nc1ccnc2cc(Cl)ccc12` (stereo not shown) [chloroquine], the “Resistance of nhr-8 mutant to the compound” value in the series with C. elegans nhr-8 mutant is “reduced resistance”.

With `CNC(=O)Oc1cccc2ccccc12` [Carbaryl], the Solubility entry in series [1] is listed as “water”.

For the molecule `CCN(CC)C(=S)[S-].O.O.O.[Na+]` [Sodium diethyldithiocarbamate trihydrate], the Solubility entry in series [1] was “water”.

On to `O=[N+]([O-])/C=C1\NCCCS1` [Nithiazine], for which the Solubility result in series [1] is given as “water”.

Turning to `Clc1ccc(C(c2ccc(Cl)cc2)C(Cl)(Cl)Cl)cc1` [DDT], the Solubility entry in series [1] was “ethanol”. In addition, in the series on Cyp6g1, the Cyp6g1 induction result is on record as “low level”. Moreover, the “Speed of death at a fixed concentration of DDT, DHR96 homozygotes vs wild type flies” value in series [3] (100 ng/μl DDT, mortality scored every hour for 10 hours) is given as “died more rapidly”. Also, the “Sensitivity to DDT (survival after a fixed time at varying concentrations), DHR96 mutants compared to control animals” value in series [3] (adult DHR96^16A or DHR96^E25 flies vs Canton S, 0.78 to 100 ng/μl DDT, scored 10 hours later) is given as “more sensitive”. In series [3] (setting [6]), the “Sensitivity to DDT treatment, original DHR96E25 mutant line vs Canton S” value is “more sensitive” and the “Sensitivity to DDT, outcrossed DHR96E25 line vs Canton S” value is on record as “no such sensitivity”.

Consider `COP(=S)(OC)Oc1ccc([N+](=O)[O-])cc1` [Methyl parathion], for which the Solubility entry in series [1] is recorded as “acetone”.

Turning to `CCc1ccc(C(=O)NN(C(=O)c2cc(C)cc(C)c2)C(C)(C)C)cc1` [tebufenozide], the “Sensitivity of the outcrossed DHR96E25 mutant to tebufenozide (surviving adult flies)” value in series [4] is listed as “slight sensitivity”. The “Activation of GAL4-DHR96 (UAS-lacZ reporter gene expression)” value in series [5] was “activated; also recorded: reproducible and distinct pattern of activation”.

Regarding `CC(C)(O)CC[C@@H](O)[C@](C)(O)[C@H]1CC[C@@]2(O)C3=CC(=O)[C@@H]4C[C@H](O)[C@@H](O)C[C@]4(C)[C@H]3CC[C@]12C` [3-epi-20-hydroxyecdysone], the “Activation of DHR38 in the GAL4-LBD system” value with DHR38 was “can be activated”.
